Measurements reported in US9207243B2, “Use of GLUT4 inhibitors and DNA damaging agents for treating multiple myeloma” (Northwestern University, priority 2011, dated 2015).
pKi: −log10 of the molar value.

Experiments:
[1] = cited from earlier work
GLUT4 [2] = target: T1, GLUT4 (Rattus norvegicus, UniProt P19357); conditions: primary rat adipocytes (Murata, Hruz et al.); read-out: Ki, reversible non-competitive GLUT4 inhibition; cited from earlier work
T1 construct: host or cells: primary rat adipocytes
T1 sequence (P19357 1-509): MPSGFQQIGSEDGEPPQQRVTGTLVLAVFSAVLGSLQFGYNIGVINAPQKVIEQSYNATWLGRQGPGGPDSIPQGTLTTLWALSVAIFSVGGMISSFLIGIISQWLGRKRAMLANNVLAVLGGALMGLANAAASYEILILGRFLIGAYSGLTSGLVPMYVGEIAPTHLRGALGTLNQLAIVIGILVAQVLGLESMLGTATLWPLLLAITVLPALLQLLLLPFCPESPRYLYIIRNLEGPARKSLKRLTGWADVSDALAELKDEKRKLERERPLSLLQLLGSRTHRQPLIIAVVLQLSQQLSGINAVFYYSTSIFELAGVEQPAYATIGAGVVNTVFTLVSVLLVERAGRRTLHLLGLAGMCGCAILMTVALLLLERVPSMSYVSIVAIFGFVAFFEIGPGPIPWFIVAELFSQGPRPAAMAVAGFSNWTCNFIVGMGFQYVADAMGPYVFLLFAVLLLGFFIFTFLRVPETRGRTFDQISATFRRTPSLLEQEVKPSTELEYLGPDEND

KMS11 cells [3] = assay: Ritonavir with or without doxorubicin, viability by AnnexinV/DAPI staining, KMS11; format: cell-based, human; conditions: KMS11, 20 μM ritonavir with 0.075 μM doxorubicin, 72 hrs
Description: (§1) (A) KMS11 and (B) L363 cells were plated in 5 mM glucose medium with ritonavir or DMSO (D) for 17 hours. Glucose consumption rates are normalized to untreated cells (not shown). (C) KMS11 and (D) L363 cells were treated with ritonavir or DMSO for 12 hours. Relative viable cell numbers were determined by MTS assay and normalized to untreated cells (not shown). (E) KMS11 and (F) L363 cells were treated with 20 μM ritonavir with or without 0.075 (KMS11) and 0.025 μM (L363) doxorubicin or the combination for 72 hrs and cellular viability assessed by AnnexinV/DAPI staining. (G) Stable KMS11 cell lines were generated expressing empty vector or GLUT1 and GLUT1 levels were assessed by immunoblot. Representative blot is shown. N.S. indicates non-specific band. (H) Stable cell lines from part G were treated with DMSO or ritonavir (Rit) for 5 hours and glucose consumption was assessed. (1) Cell proliferation was measured in the stable cell lines described in part G treated with ritonavir (Rit) or DMSO for 72 hours. A representative experiment is shown. (J) Cell proliferation rates from multiple experiments represented by part G are normalized to DMSO-treated cells. (K) Primary myeloma cells were treated with DMSO or ritonavir for 72 hours before AnnexinV/DAPI staining. Values are normalized to DMSO-treated samples (n=1 for each patient sample). Data are means±SEM with n≧3. *P<0.05 **P<0.01 ***P<0.005.

[4] = humans (Hsu, Granneman et al. 1997); cited from earlier work
L363 cells [5] = assay: Glucose consumption rate with ritonavir, L363; format: cell-based, human; conditions: L363, 5 mM glucose medium, 17 hours
Description: as §1

L363 cells [6] = assay: Ritonavir with or without doxorubicin, viability by AnnexinV/DAPI staining, L363; format: cell-based, human; conditions: L363, 20 μM ritonavir with 0.025 μM doxorubicin, 72 hrs
Description: as §1

primary myeloma cells = assay: Cytotoxicity of ritonavir towards primary myeloma cells (AnnexinV/DAPI staining); format: cell-based, human; conditions: 20 μM ritonavir, 72 hours
Description: as §1

[7] = system: KMS11 stable cell lines expressing GLUT1; assay: Cell proliferation in stable KMS11 cell lines expressing GLUT1 or control, treated with ritonavir; format: cell-based, human; conditions: KMS11 stable line expressing GLUT1, 72 hours
Description: as §1

[8] = system: KMS11 stable cell lines expressing GLUT1; assay: Glucose consumption in stable KMS11 cell lines expressing GLUT1 or control, treated with ritonavir; format: cell-based, human; conditions: KMS11 stable line expressing GLUT1, 5 hours
Description: as §1

KMS11 cells [9] = assay: Glucose consumption rate with ritonavir, KMS11; format: cell-based, human; conditions: KMS11, 5 mM glucose medium, 17 hours
Description: as §1

L363 cells [10] = assay: Relative viable cell number by MTS assay with ritonavir, L363; format: cell-based, human
Description: as §1

KMS11 cells [11] = assay: Relative viable cell number by MTS assay with ritonavir, KMS11; format: cell-based, human
Description: as §1

U266 myeloma cells = assay: Doxorubicin cell death in U266 cells in 11 or 0.5 mM glucose medium (flow cytometry, DAPI staining); format: cell-based, human; conditions: 0.5 mM vs 11 mM glucose medium, 48 hours
Description: (A) Primary normal B lymphocytes and CD138+ cells isolated from an MM patient and L363 cells were cultured in medium containing 0 or 5 mM glucose for 48 (NBL, L363) or 72 (MM Patient) hours. Cell viability was determined by flow cytometric analysis of AnnexinV/DAPI staining and normalized to 5 mM samples. Data are means±SEM (n=2). (B) Indicated cells were cultured as in (A) with various concentrations of glucose for 72 hours. Viable cell quantities were determined by MTS assay and normalized to 5 mM samples. Data are means±SEM. (C) U266 myeloma cells were cultured in 11 or 0.5 mM glucose-containing medium for 48 hours in the presence of the indicated concentrations of doxorubicin. Cell death was determined by flow cytometric analysis of DAPI staining. Data are means±SEM. *p<0.05 **p<0.01.
Glucose Deprivation Attenuates Proliferation, Viability and Chemoresistance of Myeloma Cells. To independently ascertain the contribution of glucose in maintaining myeloma cell proliferation and survival we cultured L363 myeloma cells, normal B lymphocytes (NBL), and primary MM cells in medium containing either a physiological glucose concentration (5 mM) or medium devoid of glucose and assessed the impact on cellular viability (FIG. 2 A). Under these conditions, greater than 95% of L363 cells and 50% of the primary MM cells undergo apoptosis while the viability of normal cells is not impacted. […]

GLUT4 [12] = assay: Immunostaining / confocal microscopy of GLUT4 subcellular localization in MM.1S cells; format: cell-based, human; conditions: 3 μM 8-NH2-Ado, 5 hours, aggregation of GLUT4 within the trans-golgi network
Description: (§2) (A) Measurement of glucose consumed by MM.1S cells treated with 3 μM 8-NH2-Ado for 5 hours. Data are means±SEM (n=3). (B) MM.1S cells were treated for the indicated number of hours with 3 μM 8-NH2-Ado or not (C) prior to lysis and immunoblot analysis of GLUT1 and GLUT4 expression. (C) Immunostaining of GLUT1 and GLUT4 in MM.1S cells treated with 3 μM 8 NH2-Ado for 5 hours. Arrow indicates intracellular aggregation of GLUT4.
To explore mechanisms underlying the decrease in glucose consumption elicited by 8-NH2-Ado in the MM.1S cell line, we examined the regulation of glucose transporters that regulate the primary rate limiting step in glycolysis (Rodriguez-Enriquez, Marin-Hernandez et al. 2009). We examined expression and subcellular localization of GLUT1 and GLUT4, two highly expressed glucose transporters in B lymphocytes. Despite a 40% decline in glucose consumption rates within the first five hours of treatment (FIG. 1A), no substantial changes in GLUT1 or GLUT4 expression levels are observed at this time (FIG. 1B). The expression of both GLUT1 and 4 are diminished by 24 hours, potentially contributing to the further decline in glucose transport rates seen between 5 and 17 hours. Since the activity of these proteins depends upon insertion into the plasma membrane, we next evaluated subcellular distribution by immunofluorescence confocal microscopy (FIG. 1C). […]

MM.1S cells = assay: Glucose consumption of MM.1S cells treated with 8-NH2-Ado; format: cell-based, human; conditions: 3 μM 8-NH2-Ado, within the first five hours of treatment
Description: as §2
Our laboratory has worked extensively on defining the mechanism of action of purine analogues 8-amino-adenosine (8-NH2-Ado) and 8-chloro-adenosine (Gandhi, Ayres et al. 2001; Krett, Davies et al. 2004; Ghias, Ma et al. 2005). In our recent publication (Shanmugam, McBrayer et al. 2009) we report that 8-NH2-Ado targets cellular metabolism by inducing a rapid decline in glucose consumption, the magnitude of which correlates with toxicity in various myeloma cell lines.
To explore mechanisms underlying the decrease in glucose consumption elicited by 8-NH2-Ado in the MM.1S cell line, we examined the regulation of glucose transporters that regulate the primary rate limiting step in glycolysis (Rodriguez-Enriquez, Marin-Hernandez et al. 2009). […] Since the activity of these proteins depends upon insertion into the plasma membrane, we next evaluated subcellular distribution by immunofluorescence confocal microscopy (FIG. 1C). […]

[13] = epirubicin plus lonidamine vs epirubicin alone; did not reach statistical significance; cited from earlier work
[14] = 2DG and docetaxel, evaluable pool of 18 patients

## O=CC[C@@H](O)[C@H](O)[C@H](O)CO [2DG]
[1]; 2DG and docetaxel phase I trial
  adverse event noted in multiple patients: Grade 3 hyperglycemia
[1]; [14]
  cases of disease stabilization: six
  partial response: one

## CC(C)(C)NC(=O)[C@@H]1CN(Cc2cccnc2)CCN1C[C@@H](O)C[C@@H](Cc1ccccc1)C(=O)N[C@H]1c2ccccc2C[C@H]1O [indinavir]
GLUT4 [2]
  pKi: 4.82

## CC(C)c1nc(CN(C)C(=O)N[C@H](C(=O)N[C@@H](Cc2ccccc2)C[C@H](O)[C@H](Cc2ccccc2)NC(=O)OCc2cncs2)C(C)C)cs1 [ritonavir]
KMS11 cells [3]
  sensitization to doxorubicin: recapitulates the doxorubicin-sensitizing effects of glucose limitation
[4]
  peak plasma level routinely achieved in humans: ~20 µM
L363 cells [5]
  glucose transport (glucose consumption rate): dose-dependent abrogation
L363 cells [6]
  sensitization to doxorubicin: recapitulates the doxorubicin-sensitizing effects of glucose limitation
Primary myeloma cells
  cell death induction in patient samples: a range of cell death induction
[7]
  effect of GLUT1 expression on response to prolonged ritonavir treatment (proliferation): robust resistance
[8]
  effect of GLUT1 expression on ritonavir-induced glucose transport inhibition: completely mitigated
KMS11 cells [9]
  glucose transport (glucose consumption rate): dose-dependent abrogation
L363 cells [10]
  proliferation (relative viable cell numbers, MTS): dose-dependent abrogation
KMS11 cells [11]
  proliferation (relative viable cell numbers, MTS): dose-dependent abrogation

## COc1cccc2c1C(=O)c1c(O)c3c(c(O)c1C2=O)C[C@@](O)(C(=O)CO)C[C@@H]3O[C@H]1C[C@H](N)[C@H](O)[C@H](C)O1 [doxorubicin]
U266 myeloma cells
  sensitivity to doxorubicin under glucose-limiting conditions: significantly greater sensitivity

## Nc1ncnc2c1nc(N)n2[C@@H]1O[C@H](CO)[C@@H](O)[C@H]1O [8-NH2-Ado, 8-amino-adenosine]
GLUT4 [12]
  basal cell surface localization of GLUT4: reduces this basal cell surface localization of GLUT4
MM.1S cells
  decline in glucose consumption rates: 40%

## O=C(O)c1nn(Cc2ccc(Cl)cc2Cl)c2ccccc12 [lonidamine]
[13]
  increase in overall response rate: 9%
